Consider one compound from PMC12658114, “Pharmacologic inhibition of PCBP2 biomolecular condensates relieves Alzheimer’s disease” (Nature Communications, 2025).

Holding throughout (test): biotin probe pull-down on streptavidin beads, Western blot
Holding throughout (type): biochemical
Common to all, as to details: lysate of transfected SH-SY5Y cells; labelled compound

The target of one assay is T1, flag-tagged INTS1 (Homo sapiens, UniProt Q8N201, R1404K).
T1 construct: full-length cDNA (synthesized) in pcDNA3.1(+), C-terminal 3xFLAG, transiently expressed in SH-SY5Y cells, cell lysate

The target of assay [1] is T2, flag-tagged wild type INTS1 (INTS1-WT-flag) (Homo sapiens, UniProt Q8N201).
T2 construct: full-length cDNA (synthesized) in pcDNA3.1(+), C-terminal 3xFLAG, transiently expressed in SH-SY5Y cells, cell lysate

The target in assay [2] is T3, (Homo sapiens, UniProt Q8N201, R1404A).
T3 construct: gene INTS1; full-length cDNA (synthesized) in pcDNA3.1(+), C-terminal 3xFLAG, transiently expressed in SH-SY5Y cells, cell lysate

The target of assay [3] is T4, (Homo sapiens, UniProt Q8N201, R1404L).
T4 construct: gene INTS1; full-length cDNA (synthesized) in pcDNA3.1(+), C-terminal 3xFLAG, transiently expressed in SH-SY5Y cells, cell lysate
T4 sequence (Q8N201 whole entry R1404L): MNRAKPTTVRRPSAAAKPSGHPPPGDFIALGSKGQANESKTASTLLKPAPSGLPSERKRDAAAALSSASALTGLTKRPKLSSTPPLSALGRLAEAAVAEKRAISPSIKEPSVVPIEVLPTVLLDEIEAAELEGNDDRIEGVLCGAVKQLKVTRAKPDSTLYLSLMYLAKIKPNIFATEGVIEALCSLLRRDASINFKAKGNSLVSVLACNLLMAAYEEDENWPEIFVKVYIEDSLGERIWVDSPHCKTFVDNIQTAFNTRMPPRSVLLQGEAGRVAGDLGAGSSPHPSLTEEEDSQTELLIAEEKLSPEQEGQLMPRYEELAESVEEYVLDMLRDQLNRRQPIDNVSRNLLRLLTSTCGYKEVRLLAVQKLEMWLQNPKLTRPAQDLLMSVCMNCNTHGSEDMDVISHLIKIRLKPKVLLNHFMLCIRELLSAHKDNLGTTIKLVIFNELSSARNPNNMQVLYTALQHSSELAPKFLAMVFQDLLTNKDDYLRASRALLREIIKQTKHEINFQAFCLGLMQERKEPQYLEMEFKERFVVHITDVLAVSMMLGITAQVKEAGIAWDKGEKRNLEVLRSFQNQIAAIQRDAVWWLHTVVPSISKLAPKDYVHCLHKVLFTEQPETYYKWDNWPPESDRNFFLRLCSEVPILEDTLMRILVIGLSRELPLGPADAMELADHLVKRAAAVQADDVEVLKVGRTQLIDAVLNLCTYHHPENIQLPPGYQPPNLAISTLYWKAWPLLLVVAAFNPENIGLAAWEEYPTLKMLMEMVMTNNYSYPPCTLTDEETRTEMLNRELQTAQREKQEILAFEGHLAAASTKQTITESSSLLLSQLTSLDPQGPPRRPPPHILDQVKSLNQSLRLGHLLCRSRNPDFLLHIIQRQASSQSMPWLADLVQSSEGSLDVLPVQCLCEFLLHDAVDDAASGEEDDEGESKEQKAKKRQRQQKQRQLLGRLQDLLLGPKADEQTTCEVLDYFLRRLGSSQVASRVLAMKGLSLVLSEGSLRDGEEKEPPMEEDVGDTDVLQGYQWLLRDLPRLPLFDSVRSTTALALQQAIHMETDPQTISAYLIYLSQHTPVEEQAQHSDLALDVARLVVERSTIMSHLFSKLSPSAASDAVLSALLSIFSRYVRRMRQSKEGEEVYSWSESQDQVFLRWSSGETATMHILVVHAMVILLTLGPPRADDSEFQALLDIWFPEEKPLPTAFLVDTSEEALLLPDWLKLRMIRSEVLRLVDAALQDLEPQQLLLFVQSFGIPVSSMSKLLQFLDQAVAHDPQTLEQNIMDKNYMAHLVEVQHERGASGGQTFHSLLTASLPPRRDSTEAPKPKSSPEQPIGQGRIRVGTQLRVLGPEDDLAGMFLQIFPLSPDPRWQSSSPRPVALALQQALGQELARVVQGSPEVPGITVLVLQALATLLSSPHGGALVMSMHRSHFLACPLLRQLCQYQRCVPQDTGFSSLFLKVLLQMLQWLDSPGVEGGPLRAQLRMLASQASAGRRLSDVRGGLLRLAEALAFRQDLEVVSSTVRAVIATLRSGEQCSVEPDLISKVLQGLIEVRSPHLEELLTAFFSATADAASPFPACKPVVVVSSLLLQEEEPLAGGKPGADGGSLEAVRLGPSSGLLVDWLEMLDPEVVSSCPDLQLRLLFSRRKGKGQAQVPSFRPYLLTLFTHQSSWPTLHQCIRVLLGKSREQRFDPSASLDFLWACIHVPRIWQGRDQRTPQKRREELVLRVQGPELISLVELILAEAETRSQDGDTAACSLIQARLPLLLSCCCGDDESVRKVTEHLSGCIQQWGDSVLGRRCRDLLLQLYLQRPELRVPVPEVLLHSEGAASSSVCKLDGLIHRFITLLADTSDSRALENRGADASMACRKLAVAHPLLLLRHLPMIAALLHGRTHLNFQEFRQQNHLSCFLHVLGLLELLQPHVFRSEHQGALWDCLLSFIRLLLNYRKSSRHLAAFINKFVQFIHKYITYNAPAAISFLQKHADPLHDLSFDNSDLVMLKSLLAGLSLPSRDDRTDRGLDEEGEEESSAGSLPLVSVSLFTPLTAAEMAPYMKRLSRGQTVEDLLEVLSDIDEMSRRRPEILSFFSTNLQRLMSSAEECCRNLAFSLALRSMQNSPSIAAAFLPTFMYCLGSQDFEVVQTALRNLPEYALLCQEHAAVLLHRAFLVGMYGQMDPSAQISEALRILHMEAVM

T1 sequence (Q8N201 whole entry R1404K): as the sequence (Q8N201 whole entry R1404L) above, with L1404K counted along it
T3 sequence (Q8N201 whole entry R1404A): as the sequence (Q8N201 whole entry R1404L) above, with L1404A counted along it
T2 sequence (Q8N201 whole entry): as the sequence (Q8N201 whole entry R1404L) above, with L1404R counted along it

In the case of `N#Cc1c(NC(=O)CN2CCN(C(=O)CCCC[C@H]3SC[C@@H]4NC(=O)N[C@@H]43)CC2)sc2c1CCCC2` [CN-0928-biotin, N-(3-cyano-4,5,6,7-tetrahydrobenzo[b]thiophen-2-yl)-2-(4-(5-((3aS,4R,6aR)-2-oxohexahydro-1H-thieno[3,4-d]imidazol-4-yl)pentanoyl)piperazin-1-yl)acetamide], the pulldown result was “(R1404A, R1404L, and R1404K) prevented the binding of CN-0928-biotin to flag-labeled INTS1” at flag-tagged INTS1; “(R1404A, R1404L, and R1404K) prevented the binding of CN-0928-biotin to flag-labeled INTS1” in assay [2]; “(R1404A, R1404L, and R1404K) prevented the binding of CN-0928-biotin to flag-labeled INTS1” in assay [3]. The “biotin probe pull-down on streptavidin beads, Western blot” value in assay [1] was “CN-0928-biotin pulldown of flag-tagged wild type (INTS1-WT-flag)”.
